# Reference: patent US20130102638A1, “METHODS AND COMPOSITIONS FOR CONTROLLING ALGAE” (priority 2002, published 2013)
# Columns and labels:
# [1] = tested on: Anabaena; test: Picolinafen on axenic Anabaena culture, total chlorophyll; type: cell-based; settings: for Total Chl: 10-day exposure
# Experimental: (§1) A stock solution of 50 micrograms picolinafen/L was prepared from technical grade picolinafen. Axenic algal cultures of Scenedesmus and Ankistrodesmus (green phytoplankton), Pithophora and Oedogonium (filamentous green), and Anabaena, Oscillatoria, and Pseudanabaena (blue-green) were grown. Stock material from these cultures was placed in 250 ml of CLII media (a known, defined algal growth medium). Following the addition of the algae, picolinafen was added to the beakers to achieve concentrations of 0, 1.5, 5, 10, 25, and 50 ppb. Each treatment was replicated three times and beakers were placed in Percival growth chambers that were set at 25° C., with a light intensity of 300 micromoles/square meter/second and a 16:8 photoperiod. The algae were given a 10 to 14 day incubation period, and depending on the growth form of the algae, either total chlorophyll, cell counts, or algal biomass were quantified as end points.
# [2] = tested on: Oedogonium; test: Picolinafen on axenic Oedogonium culture, total chlorophyll and biomass; type: cell-based; settings: 10-day exposure
# Experimental: as §1
# [3] = tested on: Scenedesmus; test: Picolinafen on axenic Scenedesmus culture, total chlorophyll; type: cell-based; settings: 10-day exposure
# Experimental: as §1
# [4] = tested on: Pithophora (filamentous green); test: Picolinafen on axenic Pithophora culture, biomass; type: cell-based; settings: 10-day exposure
# Experimental: as §1
# [5] = tested on: Oscillatoria; test: Picolinafen on axenic Oscillatoria culture, total chlorophyll; type: cell-based; settings: 10-day exposure
# Experimental: as §1
# [6] = tested on: Pseudanabaena (blue-green); test: Picolinafen on axenic Pseudanabaena culture, cell counts; type: cell-based; settings: 10-day exposure
# Experimental: as §1
# [7] = tested on: eurasian watermilfoil; test: Impact on growth of eurasian watermilfoil; type: in vivo; settings: at levels showing significant control of the algal species
# [8] = tested on: hydrilla; test: Impact on growth of hydrilla; type: in vivo; settings: at levels showing significant control of the algal species
# [9] = tested on: algal species; test: Algal culture exposure, overall observations; type: cell-based
# Experimental: as §1
# [10] = tested on: Spirogyra; test: Picolinafen on Spirogyra culture, biomass; type: cell-based; settings: 10-day exposure
# Experimental: [The source words this procedure for another organism and reports this organism under the same test.] as §1
# [11] = tested on: Ankistrodesmus; test: Picolinafen on axenic Ankistrodesmus culture, cell counts; type: cell-based; settings: 10-day exposure
# Experimental: as §1
compound,measurement,setting,value
"O=C(Nc1ccc(F)cc1)c1cccc(Oc2cccc(C(F)(F)F)c2)n1 [Picolinafen, N-(4-fluorophenyl)-6-[3-(trifluoromethyl)phenoxy]-2-pyridinecarboxamide]",tolerance of Anabaena compared to other algal species,[1],highest level of tolerance
same,Total Chl,[1]; 1.5 ppb,880 μg chl.
same,Total Chl,[1]; 5 ppb,906 μg chl.
same,Total Chl,[1]; 10 ppb,685 μg chl.
same,Total Chl,[1]; 25 ppb,526 μg chl.
same,Total Chl,[1]; 50 ppb,101 μg chl.
same,Biomass,[2]; 1.5 ppb,0.064 mg dry wt./beaker
same,Total Chl,[2]; 1.5 ppb,1522 μg chl.
same,Biomass,[2]; 5 ppb,0.027 mg dry wt./beaker
same,Total Chl,[2]; 5 ppb,1057 μg chl.
same,Biomass,[2]; 10 ppb,0.019 mg dry wt./beaker
same,Total Chl,[2]; 10 ppb,342 μg chl.
same,Biomass,[2]; 25 ppb,0.011 mg dry wt./beaker
same,Total Chl,[2]; 25 ppb,247 μg chl.
same,Biomass,[2]; 50 ppb,0.005 mg dry wt./beaker
same,Total Chl,[2]; 50 ppb,144 μg chl.
same,Total Chl,[3]; 1.5 ppb,2427 (119) μg chl/g
same,Total Chl,[3]; 5 ppb,87 (16) μg chl/g
same,Total Chl,[3]; 10 ppb,15 (6) μg chl/g
same,Total Chl,[3]; 25 ppb,17 (8) μg chl/g
same,Total Chl,[3]; 50 ppb,12 (6) μg chl/g
same,Biomass,[4]; 1.5 ppb,26.2 mg dry wt./beaker
same,Biomass,[4]; 5 ppb,19.1 mg dry wt./beaker
same,Biomass,[4]; 10 ppb,20.4 mg dry wt./beaker
same,Biomass,[4]; 25 ppb,14.8 mg dry wt./beaker
same,Biomass,[4]; 50 ppb,11.4 mg dry wt./beaker
same,Total Chl,[5]; 1.5 ppb,14 μg chl.
same,Total Chl,[5]; 5 ppb,10 μg chl.
same,Total Chl,[5]; 10 ppb,21 μg chl.
same,Total Chl,[5]; 25 ppb,17 μg chl.
same,Total Chl,[5]; 50 ppb,13 μg chl.
same,Cell Count,[6]; 1.5 ppb,"2,344 cells/ml"
same,Cell Count,[6]; 5 ppb,89 cells/ml
same,Cell Count,[6]; 10 ppb,52 cells/ml
same,Cell Count,[6]; 25 ppb,98 cells/ml
same,Cell Count,[6]; 50 ppb,77 cells/ml
same,impact upon the growth of eurasian watermilfoil,[7],substantially no impact
same,impact upon the growth of hydrilla,[8],substantially no impact
same,sensitivity of most algal species,[9]; concentrations of 10 ppb and less,highly sensitive
same,time to bleaching (visual observations),[9]; some of the test species,≤ 12 h
same,algacidal versus herbicidal activity in the aquatic environment,[9]; two aquatic macrophyte species compared with various algal species,greater algacidal than herbicidal activity
same,Biomass,[10]; 1.5 ppb,16.2 mg dry wt./beaker
same,Biomass,[10]; 5 ppb,6.9 mg dry wt./beaker
same,Biomass,[10]; 10 ppb,3.0 mg dry wt./beaker
same,Biomass,[10]; 25 ppb,3.8 mg dry wt./beaker
same,Biomass,[10]; 50 ppb,3.3 mg dry wt./beaker
same,Cell Count,[11]; 1.5 ppb,"3,025,323 cells/ml"
same,Cell Count,[11]; 5 ppb,"141,246 cells/ml"
same,Cell Count,[11]; 10 ppb,"96,622 cells/ml"
same,Cell Count,[11]; 25 ppb,"87,012 cells/ml"
same,Cell Count,[11]; 50 ppb,"81,706 cells/ml"
